Test results published in patent US6399575B1, “Methods and compositions for targeting compounds to the central nervous system” (Auburn University, priority 1998, dated 2002).
Entries after “also recorded” stand apart in the source; their conditions may differ.

Legend:
brain tissue = test: in vivo selection of brain-binding phage-displayed peptides by panning in mice; parameters: species or system BALB/c mice; conditions: phage library injected intravenously, 30 min to 1 hour circulation, brain tissue recovered, four rounds
Method: FIG. 1 provides the scheme for selection of tissue specific phage in vivo. In this example, candidate brain-binding peptides were selected by panning in BALB/c mice. In round one of selection, the phage library was injected intravenously. After thirty minutes of circulation, the mice were euthanized by carbon dioxide inhalation, perfused with 60 ml of ice cold PBS via the left ventricle, and brain tissue was recovered from the animals. The tissue was minced into small pieces and rinsed repeated in PBS, followed by homogenization in lysis buffer. The tissue homogenate was then incubated with fresh E coli cells and the phage present allowed to infect and lyse the bacteria. Phage were recovered by polyethylene glycol precipitation of the lysate. In subsequent rounds, the phage purified from brain tissues recovered in the previous round was injected intravenously, and tissue was recovered after thirty to sixty minutes of circulation. After the last round, the phages were plated on a lawn of bacteria and a number of pliage plaques were isolated and the DNA sequenced. Of these, a certain percentage represented the dominant selected clone.
To remove unbound, non-specific phage, from the parenchyma of the tissue, the screening protocol of Example 2 was modified. After intravenous administration, the phage were left in circulation for 1 hour (30 minutes in Example 2) to allow more phage clones with CNS binding affinity to reach their target. CNS tissue samples were then homogenized in TBS buffer instead of the lysis buffer which was used at this step previously. Tissue homogenates were pelleted by centrifugation and the supernatant was discarded. The pellet was washed two more times in TBS to remove unbound phage. The pellet was re-homogenized in lysis buffer and the remainder of the selection protocol was completed as described in Example 2. The following brain specific peptides were determined: […]

skeletal muscle = conditions: as described in U.S. Pat. No. 6,329,501; cited from earlier work

| Substance | binding to brain (brain tissue) | binding to skeletal muscle (skeletal muscle) |
| --- | --- | --- |
| GETRAPL [Gly-Glu-Thr-Arg-Ala-Pro-Leu] | binding to brain | capable of binding to skeletal muscle; also recorded: also binds skeletal muscle |
| LFTPPVL [Leu-Phe-Thr-Pro-Pro-Val-Leu, brain specific peptide selected by in vivo phage display] | specific for binding to the brain |  |
| LPHQNNR [Leu-Pro-His-Gln-Asn-Asn-Arg, brain specific peptide selected by in vivo phage display] | specific for binding to the brain |  |
| LPLTPLP [Leu-Pro-Leu-Thr-Pro-Leu-Pro, brain specific peptide selected by in vivo phage display] | specific for binding to the brain |  |
| QPTASLT [Gln-Pro-Thr-Ala-Ser-Leu-Thr, brain specific peptide selected by in vivo phage display] | specific for binding to the brain |  |
| SSHTISF [Ser-Ser-His-Thr-Ile-Ser-Phe, brain specific peptide selected by in vivo phage display] | specific for binding to the brain |  |
